# How the values were obtained:
# [1] = biological target: FLNA pentapeptide VAKGL (SEQ ID NO: 1) (Homo sapiens, UniProt P21333); assay: FITC-NLX-based FLNA screening assay; format: binding; conditions: for Percent Binding Inhibition (FITC-NLX binding to Bn-VAKGL): 10 nM FITC-NLX
# mu opiate receptor (MOR) = biological target: T1, mu opiate receptor (MOR) (Rattus norvegicus, UniProt P33535); assay: MOR agonist activity using [35S]GTPγS binding assay in striatal membranes; format: biochemical; conditions: for MOR agonist activity, [35S]GTPγS binding, FLNA-binding compound as agonist at 0.1 μM / MOR agonist activity, [35S]GTPγS binding, 1 μM + BFNA / MOR agonist activity, [35S]GTPγS binding, FLNA-binding compound as agonist at 1 μM: striatal membranes; for MOR agonist activity, [35S]GTPγS binding, FLNA-binding compound as agonist at 0.1 μM / MOR agonist activity, [35S]GTPγS binding, FLNA-binding compound as agonist at 1 μM: Series C-2; for MOR agonist activity, [35S]GTPγS binding, 1 μM + BFNA: 1 μM compound + 1 μM β-FNA (MOR antagonist); for % DAMGO (1 μM) / MOR agonist activity, [35S]GTPγS binding, FLNA-binding compound as agonist at 1 μM: 1 μM compound; for MOR agonist activity ([35S]GTPγS binding to Gαo), preliminary study: average of two runs
# T1 construct: from tissue; host or cells: striatal tissue (membrane preparation)
# T1 sequence (P33535 whole entry): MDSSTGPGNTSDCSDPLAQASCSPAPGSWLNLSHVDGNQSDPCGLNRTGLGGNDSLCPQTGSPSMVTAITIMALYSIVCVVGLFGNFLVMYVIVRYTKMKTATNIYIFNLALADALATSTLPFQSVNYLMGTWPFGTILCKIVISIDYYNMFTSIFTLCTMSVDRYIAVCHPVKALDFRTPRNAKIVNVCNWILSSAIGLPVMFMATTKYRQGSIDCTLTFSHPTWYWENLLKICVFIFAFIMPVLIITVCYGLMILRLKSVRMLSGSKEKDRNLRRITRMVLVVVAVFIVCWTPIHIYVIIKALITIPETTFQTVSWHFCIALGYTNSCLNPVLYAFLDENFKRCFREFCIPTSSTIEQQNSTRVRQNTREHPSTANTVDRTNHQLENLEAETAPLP
# Procedure: To assess the mu opiate receptor (MOR) agonist activity of positive compounds from the FLNA screening, compounds were tested in a [^35S]GTPγS binding assay using striatal membranes. […] This assay measures a functional consequence of receptor occupancy at one of the earliest receptor-mediated events. The assay permits for traditional pharmacological parameters of potency, efficacy and antagonist affinity, with the advantage that agonist measures are not subjected to amplification or other modulation that may occur when analyzing parameters further downstream of the receptor.
# Thus, striatal tissue was homogenized in 10 volumes of ice cold 25 mM HEPES buffer, pH 7.4, which contained 1 mM EGTA, 100 mM sucrose, 50 μg/ml leupeptin, 0.04 mM PMSF, 2 μg/ml soybean trypsin inhibitor and 0.2% 2-mercaptoethanol. The homogenates were centrifuged at 800×g for 5 minutes and the supernatants were centrifuged at 49,000×g for 20 minutes.
# The resultant striatal membrane preparation (200 μg) was admixed and maintained (incubated) at 30° C. for 5 minutes in reaction buffer as above that additionally contained 1 mM MgCl2 and 0.5 nM [^35S]GTPγS (0.1 μCi/assay, PerkinElmer Life and Analytical Sciences) in a total volume of 250 μl and continued for 5 minutes in the absence or presence of 0.1-10 μM of an assayed compound of interest. The reaction was terminated by dilution with 750 μl of ice-cold reaction buffer that contained 20 mM MgCl2 and 1 mM EGTA and immediate centrifugation at 16,000×g for 5 minutes.
# Normal rabbit serum (1 μl) was added to 1 ml of lysate and incubated at 25° C. for 30 minutes. Nonspecific immune complexes were removed by incubation with 25 μl of protein A/G-conjugated agarose beads at 25° C. for 30 minutes followed by centrifugation at 5,000×g at 4° C. for 5 minutes. The supernatant was divided and separately incubated at 25° C. for 30 minutes with antibodies raised against Gαo proteins (1:1,000 dilutions).
# The immunocomplexes so formed were collected by incubation at 25° C. for 30 minutes with 40 μl of agarose-conjugated protein A/G beads and centrifugation at 5,000×g at 4° C. for 5 minutes. The pellet was washed and suspended in buffer containing 50 mM Tris-HCl, pH 8.0, and 1% NP-40. The radioactivity in the suspension was determined by liquid scintillation spectrometry.
Compound,"MOR agonist activity, [35S]GTPγS binding, FLNA-binding compound as agonist at 0.1 μM (mu opiate receptor (MOR); 0.1 μM compound)","MOR agonist activity, [35S]GTPγS binding, 1 μM + BFNA (mu opiate receptor (MOR))","MOR agonist activity, [35S]GTPγS binding, FLNA-binding compound as agonist at 1 μM (mu opiate receptor (MOR))",other results
"CO[C@]12CC[C@@]3(C[C@@H]1C(C)(O)C(C)(C)C)[C@H]1Cc4ccc(O)c5c4[C@@]3(CCN1CC1CC1)[C@H]2O5 (some centres unmarked) [Buprenorphine, reference compound]",,,,Binding to the FLNA pentapeptide of SEQ ID NO: 1 (in words) [1]: bind well
CCOC(=O)CN1CCC2(CC1)OCCN2S(=O)(=O)c1ccc(C(C)=O)cc1 [Compound C0099M],157.2%,114.7%,195.7%,% DAMGO (1 μM) (mu opiate receptor (MOR); relative to DAMGO): 88.0%
CC(=O)c1ccc(S(=O)(=O)N2CCOC23CCN(CC(=O)O)CC3)cc1 [Compound C0100M],173.6%,195.6%,245.9%,
CCCCN1CCC2(CC1)OCCN2S(=O)(=O)c1ccc(C(C)=O)cc1 [Compound C0101M],138.2%,174.8%,274.3%,
CCCCN1CCC2(CC1)OCCN2S(=O)(=O)c1ccc(OC)cc1 [Compound C0102M],131.8%,150.4%,272.0%,
CN1CCC2(CC1)NC(=O)CN2Cc1ccccc1 [Compound C0104M],188.2%,143.8%,238.9%,
CN1CCC2(CC1)OCCN2S(=O)(=O)c1ccc(S(C)(=O)=O)cc1 [Compound C0106M],171.8%,117.2%,240.7%,
CC(=O)c1ccc(S(=O)(=O)N2CC(CN(C)C)OC23CCN(C)CC3)cc1 (centres unmarked) [Compound C0108M],205.6%,76.9%,258.5%,
O=C1CN(Cc2ccccc2)C2(CCNCC2)N1 [Compound C0115M],177.2%,118.4%,226.8%,
CS(=O)(=O)c1ccc(S(=O)(=O)N2CCOC23CCNCC3)cc1 [Compound C0116M],258.4%,152.0%,302.8%,
CC(=O)c1ccc(S(=O)(=O)N2CC(CN(C)C)OC23CCNCC3)cc1 (centres unmarked) [Compound C0118M],166.2%,79.2%,261.5%,
CC(=O)c1ccc(S(=O)(=O)N2C(Cc3c[nH]cn3)C(=O)NC23CCNCC3)cc1 (centres unmarked) [Compound C0119M],105.7%,35.1%,167.8%,% DAMGO (1 μM) (mu opiate receptor (MOR); relative to DAMGO): 83.0%
O=C1CN(Cc2ccccc2)C2(CCN(CC3CC3)CC2)N1 [Compound C0125M],168.6%,159.7%,195.2%,
CS(=O)(=O)c1ccc(S(=O)(=O)N2CCOC23CCN(CC2CC2)CC3)cc1 [Compound C0126M],181.8%,108.5%,265.3%,
CC(=O)c1ccc(S(=O)(=O)N2CC(CN(C)C)OC23CCN(CC2CC2)CC3)cc1 (centres unmarked) [Compound C0128M],197.8%,63.9%,286.0%,
COc1ccc(S(=O)(=O)N2CCOC23CCN(C(C)C)CC3)cc1 [Compound C0133M],139.4%,72.4%,214.8%,
Cc1ccc(S(=O)(=O)N2CCOC23CCN(CC2CC2)CC3)cc1 [Compound C0134M],158.5%,46.6%,207.3%,"MOR agonist activity ([35S]GTPγS binding to Gαo), preliminary study (mu opiate receptor (MOR); 0.1 μM compound as agonist): 150.7%; % DAMGO (0.1 μM) (mu opiate receptor (MOR); 0.1 μM compound, relative to DAMGO): 94.6%; MOR agonist activity ([35S]GTPγS binding to Gαo), preliminary study (mu opiate receptor (MOR); 1 μM + βNFA): 53.2%; % DAMGO + BFNA (mu opiate receptor (MOR); 1 μM compound + BFNA, relative to DAMGO + BFNA): 98.1%; MOR agonist activity ([35S]GTPγS binding to Gαo), preliminary study (mu opiate receptor (MOR); 1 μM compound as agonist): 224.0%; % DAMGO (1 μM) (mu opiate receptor (MOR); relative to DAMGO): 93.3%"
CCc1ccc(S(=O)(=O)N2CCOC23CCN(CC2CC2)CC3)cc1 [Compound C0135M],161.3%,113.3%,310.1%,
COc1ccc(S(=O)(=O)N2CCC3(CC2)NCCC(=O)N3)cc1 [Compound C0142M],143.7%,98.7%,192.5%,
O=S(=O)(c1cccc2cccnc12)N1CCC2(CC1)OCCN2S(=O)(=O)c1cccc2cccnc12 [Compound C0143M],81.0%,86.5%,193.3%,
COc1ccc(S(=O)(=O)N2CCC3(NCCO3)C3CCCCC32)cc1 (centres unmarked) [Compound C0144M-2],186.3%,125.9%,295.9%,
COc1ccc(S(=O)(=O)N2CCOC23CCCNC3)cc1 (centres unmarked) [Compound C0145M-3],193.0%,87.0%,289.2%,
O=C1CNC2(CCN(S(=O)(=O)c3ccc(O)cc3)CC2)N1Cc1ccccc1 [Compound C0148M],,,,Percent Binding Inhibition (FITC-NLX binding to Bn-VAKGL) ([1]; 0.01 μM FLNA-binding compound): 46.2%; Percent Binding Inhibition (FITC-NLX binding to Bn-VAKGL) ([1]; 0.1 μM FLNA-binding compound): 52.0%; Percent Binding Inhibition (FITC-NLX binding to Bn-VAKGL) ([1]; 1 μM FLNA-binding compound): 57.0%
O=S(=O)(c1ccccc1Oc1ccccc1)N1CCC2(CC1)NCCO2 [Compound C0149M-2],209.8%,93.4%,406.7%,
COc1ccc(NC(=O)N2CCC3(CC2)NCCO3)cc1 [Compound C0151M-2],346.8%,212.8%,397.6%,
"C[C@@H](NC(=O)[C@@H](N)Cc1ccc(O)cc1)C(=O)NCC(=O)N(C)[C@@H](Cc1ccccc1)C(=O)NCCO [DAMGO, [D-Ala2, N-MePhe4, Gly-ol]-enkephalin, reference compound]",168.5%,53.2%,266.1%,"MOR agonist activity ([35S]GTPγS binding to Gαo), preliminary study (mu opiate receptor (MOR); 0.1 μM compound as agonist): 144.7%; MOR agonist activity ([35S]GTPγS binding to Gαo), preliminary study (mu opiate receptor (MOR); 1 μM + βNFA): 56.8%; MOR agonist activity ([35S]GTPγS binding to Gαo), preliminary study (mu opiate receptor (MOR); 1 μM compound as agonist): 233.4%"
COc1ccc(S(=O)(=O)N2CCSC23CCNCC3)cc1 [S-C0027],156.2%,56.2%,286.8%,
"CN1CC[C@]23c4c5ccc(O)c4O[C@H]2[C@@H](O)C=C[C@H]3[C@H]1C5 [morphine, reference compound]",,,,Binding to the FLNA pentapeptide of SEQ ID NO: 1 (in words) [1]: do not bind
Nalbuphine [reference compound],,,,Binding to the FLNA pentapeptide of SEQ ID NO: 1 (in words) [1]: bind well

# Source: US10222368B2 (priority 2012, dated 2019)
